Earlier results as cited in patent publication US20130109728A1, “BIOCIDE COMPOSITION” (TITAN CHEMICALS LIMITED, priority 2011, published 2013).

How the values were obtained:
[1] = not given; remark: listed apart in the source

In the case of `O=c1[nH]sc2ccccc12` [BIT, 1,2-benzisothiazolin-3-one], the water solubility is listed as “not very water soluble”.

In the case of `Cn1sccc1=O` [MIT, 2-methylisothiazolin-3-one], the “freezing point of solutions in water” value ([1]; solutions of MIT in water) is given as “about 0 °C”.

For `C[N+](C)(C)C.O=c1[nH]sc2ccccc12` [tetramethylammonium BIT, tetramethylammonium 1,2-benzisothiazolin-3-one], the “minimum freezing point of water solution” value ([1]; 59 wt % tetramethylammonium BIT (40 wt % calculated as BIT), after storage for 24 hours and seeding with solid tetramethylammonium BIT, reported in WO 02 14 293) is given as 3 °C.
